Experiments:
[1] = biological target: CID domains; conditions: cited from earlier work
[2] = system: mCherry; experiment: Drug inhibited knockdown system (Cas13 OFF switch, dNS3/ANR domains), mCherry expression; format: cell-based; conditions: split Cas13d linked to dNS3 and ANR domains
[3] = system: mammalian systems; conditions: toxicity in mammalian systems at working concentration; cited from earlier work
[4] = system: mCherry; experiment: Split Cas13 (559/560) or WTCas13 driven by inducible promoters (NFkB, CAGA12, AP1), mCherry knockdown; format: cell-based; conditions: NFkB promoter with TGFbeta; CAGA12 promoter with TNFalpha; AP1 promoter with PMA
Text: FIG. 13A-13E is a series of schematics and graphs showing the coupling of split Cas13 (559/560) expression to inducible promoters responsive to endogenous signals. Inducible promoters responsive to endogenous signals drove split Cas13 expression for the construction of AND logic gate. FIG. 13A is a schematic showing the transfection compositions of endogenous signal-responsive promoters (e.g., “short response elements” and “miniP”) driving split Cas13d's. […] FIG. 13E is a series of bar graphs showing that orthogonality among the 3 inducible promoters tested. In FIG. 13B-13D, the left-right order of the bars for each design is the same as the top-down order of the legend for each bar graph, and “NT-gRNA” is non-target gRNA. In FIG. 13E, the left-right order of the bars is the same as the top-down order of the legend for each bar graph.

[5] = system: recombinase reporter; experiment: Split recombinases (Cre, Flp, PhiC, vCre) with tandem or single CaffVHH, recombinase reporters, caffeine induction; format: cell-based; conditions: 48 hours of 100 uM caffeine
[6] = system: mCherry; experiment: mCherry knockdown by LwaCas13a and PspCas13b, WT and GIB CID split sites; format: cell-based
Text: Cas13b was able to facilitate over 70% mCherry knockdown. […] Two additional mCherry-targeting crRNA sequences for LwaCas13a were identified; they both offered moderate mCherry knockdown (around 50% in populations highly expressing Cas13a).
With the LwaCas13a and PspCas13b specific mCherry-targeting crRNAs, 12 split sites were screened in PspCas13b, and 11 split sites were screened in LwaCas13a sequences.
Therefore, it is contemplated herein that the knockdown efficiency of split LwaCas13a can be brought up by optimized crRNA design. Moreover, without wishing to be bound by theory, with a more efficient crRNA, GIB-induced knockdown efficiency by splits 397/398, 488/489, 605/606, 786/787, or 826/827 could also be enhanced.

Molecule: C=C[C@@H]1C[C@]1(NC(=O)[C@@H]1C[C@@H]2CN1C(=O)[C@H](C(C)(C)C)NC(=O)O[C@@H]1C[C@H]1CCCCCc1nc3ccc(OC)cc3nc1O2)C(=O)NS(=O)(=O)C1CC1.O [Grazoprevir, reference compound]
- Kd ([1]; ligand / CID dimerization domain, read-out: Dissociation constant (Kd)): 0.02 nM
- Reversibility ([1]; reversibility of the ligand-induced dimerization / action): yes
- inhibition of constitutive knockdown activity of the OFF switch [2]: able to inhibit the constitutive knockdown activity
- Toxicity* [3]: no

Molecule: TNFalpha
- mCherry knockdown by split Cas13d or WTCas13 expressed from inducible promoter [4]: induced mCherry knockdown

B1: Flp split 374/375: split Flp, aa 1-374 / 375-423 of SEQ ID NO: 60, with tandem or single CaffVHH (protein, listed as Saccharomyces cerevisiae)
chain: MSQFDILCKTPPKVLVRQFVERFERPSGEKIASCAAELTYLCWMITHNGTAIKRATFMSYNTIISNSLSFDIVNKSLQFKYKTQKATILEASLKKLIPAWEFTIIPYNGQKHQSDITDIVSSLQLQFESSEEADKGNSHSKKMLKALLSEGESIWEITEKILNSFEYTSRFTKTKTLYQFLFLATFINCGRFSDIKNVDPKSFKLVQNKYLGVIIQCLVTETKTSVSRHIYFFSARGRIDPLVYLDEFLRNSEPVLKRVNRTGNSSSNKQEYQLLKDNLVRSYNKALKKNAPYPIFAIKNGPKSHIGRHLMTSFLSMKGLTELTNVVGNWSDKRASAVARTTYTHQITAIPDHYFALVSRYYAYDPISKEMIAL
modifications: split with 375-423; CaffVHH fusions
- induced recombination, tandem CaffVHH compared to single CaffVHH [5]: comparable induced recombination, if not better

B2: LwaCas13a: Cas13a from Leptotrichia wadei (protein, listed as Leptotrichia wadei)
chain: MKVTKVDGISHKKYIEEGKLVKSTSEENRTSERLSELLSIRLDIYIKNPDNASEEENRIRRENLKKFFSNKVLHLKDSVLYLKNRKEKNAVQDKNYSEEDISEYDLKNKNSFSVLKKILLNEDVNSEELEIFRKDVEAKLNKINSLKYSFEENKANYQKINENNVEKVGGKSKRNIIYDYYRESAKRNDYINNVQEAFDKLYKKEDIEKLFFLIENSKKHEKYKIREYYHKIIGRKNDKENFAKIIYEEIQNVNNIKELIEKIPDMSELKKSQVFYKYYLDKEELNDKNIKYAFCHFVEIEMSQLLKNYVYKRLSNISNDKIKRIFEYQNLKKLIENKLLNKLDTYVRNCGKYNYYLQVGEIATSDFIARNRQNEAFLRNIIGVSSVAYFSLRNILETENENGITGRMRGKTVKNNKGEEKYVSGEVDKIYNENKQNEVKENLKMFYSYDFNMDNKNEIEDFFANIDEAISSIRHGIVHFNLELEGKDIFAFKNIAPSEISKKMFQNEINEKKLKLKIFKQLNSANVFNYYEKDVIIKYLKNTKFNFVNKNIPFVPSFTKLYNKIEDLRNTLKFFWSVPKDKEEKDAQIYLLKNIYYGEFLNKFVKNSKVFFKITNEVIKINKQRNQKTGHYKYQKFENIEKTVPVEYLAIIQSREMINNQDKEEKNTYIDFIQQIFLKGFIDYLNKNNLKYIESNNNNDNNDIFSKIKIKKDNKEKYDKILKNYEKHNRNKEIPHEINEFVREIKLGKILKYTENLNMFYLILKLLNHKELTNLKGSLEKYQSANKEETFSDELELINLLNLDNNRVTEDFELEANEIGKFLDFNENKIKDRKELKKFDTNKIYFDGENIIKHRAFYNIKKYGMLNLLEKIADKAKYKISLKELKEYSNKKNEIEKNYTMQQNLHRKYARPKKDEKFNDEDYKEYEKAIGNIQKYTHLKNKVEFNELNLLQGLLLKILHRLVGYTSIWERDLRFRLKGEFPENHYIEEIFNFDNSKNVKYKSGQIVEKYINFYKELYKDNVEKRSIYSDKKVKKLKQEKKDLYIRNYIAHFNYIPHAEISLLEVLENLRKLLSYDRKLKNAIMKSIVDILKEYGFVATFKIGADKKIEIQTLESEKIVHLKNLKKKKLMTDRNSEELCELVKVMFEYKALE
- mCherry knockdown compared to no crRNA control group ([6]; position-matched LwaCas13a crRNA): did not achieve mCh knockdown
- mCherry knockdown ([6]; two additional mCherry-targeting crRNA sequences, populations highly expressing Cas13a): around 50%
